Measured values taken from patent publication US20190071670A1, “Methods Of Treatment For Alpha-1 Antitrypsin Deficiency” (Arrowhead Pharmaceuticals, Inc., priority 2016, published 2019).

Test system: hAAT
Assay: Serum hAAT protein levels in PiZ mice (ELISA)
Format: in vivo, human (expressed in PiZ mice)
Conditions: for Serum hAAT levels reduced: 6 month old female PiZ mice, single IV 8 mg/kg + 8 mg/kg MLP delivery polymer; for Serum hAAT normalized to Day 1 and control / Normalized serum hAAT levels: PiZ mice; for Normalized serum hAAT levels: normalized to day 1 and saline control
Method: Human AAT protein levels in serum were monitored for 29 days. At the indicated times, blood samples were collected and assayed for hAAT by ELISA. Day 1 samples were collected prior to trigger administration. For mRNA analysis, 3-4 mice were euthanized at each of days 3, 8, 15, 22, and 29. For euthanized mice, cardiac stick were performed for serum isolation for AAT ELISA (200 μl serum). Half of the left lateral liver lobe was collected and snap-freeze in liquid nitrogen for RNA isolation. The remainder of the left lobes were embedded into paraffin blocks for PAS-D staining with hematoxylin as counter-stain. Serum hAAT levels in mice given AAT Duplex Pair SEQ ID NO: 5/6 were 95% reduced on day 8 and remained reduced to day 29, at which time they were 79% reduced. Mice given AAT Duplex Pair SEQ ID NO: 5/6 were euthanized at either day 3, 8, 15, 22 or 29. Mice given saline or Luciferase siRNA control (SEQ ID 7/8) were euthanized on day 29. Levels of hAAT mRNA in the livers were measured by RT-qPCR. The hAAT mRNA in mice given AAT Duplex Pair SEQ ID NO: 5/6 was reduced by 97% on day 3 and remained reduced on day 29, at which time levels were 56% reduced. The size of the globules and the area of the liver covered by globules was digitally quantitated from liver specimens stained with PAS-D. Duplex Pair SEQ ID NO: 5/6 treated mice had 70% smaller globules at day 15 and 62% smaller globules at day 29. The area of the liver covered with globules was 83% reduced on day 15 and 72% reduced on day 29 (FIG. 5).

Duplex Pair SEQ ID NO: 5/6: double-stranded AAT RNAi agent: modified antisense strand SEQ ID NO: 5 annealed to Chol-TEG sense strand SEQ ID NO: 6 (antisense TGGAACUUGGUGAUGAUAUTT; sense UAUAUAUCAUCACCAAGUUCCAT; Chol-TEG on sense strand; chemical modifications; antisense strand of dsRNA; modified_base 7 /mod_base = “2′-3′ seco corresponding nucleotide”; modified_base 2,4,6,8,10,12,14,16,18 /mod_base = “2′-deoxy-2′-fluoro corresponding nucleoside”; modified_base 3,5,9,11,13,15,17,19 /mod_base = “2′-O-methyl corresponding nucleoside”; modified_base 21 /mod_base = “5′-phosphorothioate corresponding nucleotide”; sense strand of dsRNA; modified_base 2 /mod_base = “2′-hydroxy corresponding nucleoside”; modified_base 4,6,8,10,12,14,16,18,20,22 /mod_base = “2′-deoxy-2′-fluoro corresponding nucleoside”; …)
Serum hAAT levels reduced (day 8): 95% | Serum hAAT levels reduced (day 29): 79% | Serum hAAT normalized to Day 1 and control (single IV 0.5 mg/kg + 4 mg/kg MLP delivery polymer, Day 1): 1.00 | Serum hAAT normalized to Day 1 and control (single IV 0.5 mg/kg + 4 mg/kg MLP delivery polymer, Day 3): 0.27 ± 0.02 | Serum hAAT normalized to Day 1 and control (single IV 0.5 mg/kg + 4 mg/kg MLP delivery polymer, Day 8): 0.29 ± 0.09 | Serum hAAT normalized to Day 1 and control (single IV 0.5 mg/kg + 4 mg/kg MLP delivery polymer, Day 15): 0.43 ± 0.01 | Serum hAAT normalized to Day 1 and control (single IV 0.5 mg/kg + 4 mg/kg MLP delivery polymer, Day 22): 0.73 ± 0.03 | Serum hAAT normalized to Day 1 and control (single IV 0.5 mg/kg + 4 mg/kg MLP delivery polymer, Day 29): 0.66 ± 0.05 | Serum hAAT normalized to Day 1 and control (single IV 0.5 mg/kg + 4 mg/kg MLP delivery polymer, Day 35): 0.97 ± 0.02 | Serum hAAT normalized to Day 1 and control (single IV 0.5 mg/kg + 4 mg/kg MLP delivery polymer, Day −3): 0.64 ± 0.10 | Serum hAAT normalized to Day 1 and control (single IV 0.5 mg/kg + 8 mg/kg MLP delivery polymer, Day 1): 1.00 | Serum hAAT normalized to Day 1 and control (single IV 0.5 mg/kg + 8 mg/kg MLP delivery polymer, Day 3): 0.20 ± 0.02 | Serum hAAT normalized to Day 1 and control (single IV 0.5 mg/kg + 8 mg/kg MLP delivery polymer, Day 8): 0.10 ± 0.03 | Serum hAAT normalized to Day 1 and control (single IV 0.5 mg/kg + 8 mg/kg MLP delivery polymer, Day 15): 0.19 ± 0.05 | Serum hAAT normalized to Day 1 and control (single IV 0.5 mg/kg + 8 mg/kg MLP delivery polymer, Day 22): 0.55 ± 0.05 | Serum hAAT normalized to Day 1 and control (single IV 0.5 mg/kg + 8 mg/kg MLP delivery polymer, Day 29): 0.49 ± 0.09 | Serum hAAT normalized to Day 1 and control (single IV 0.5 mg/kg + 8 mg/kg MLP delivery polymer, Day 35): 0.71 ± 0.09 | Serum hAAT normalized to Day 1 and control (single IV 0.5 mg/kg + 8 mg/kg MLP delivery polymer, Day −3): 0.71 ± 0.03 | Normalized serum hAAT levels (single IV 2 mg/kg + 2 mg/kg MLP, day 1): 1.00 | Normalized serum hAAT levels (single IV 2 mg/kg + 2 mg/kg MLP, day 8): 0.32 ± 0.24 | Normalized serum hAAT levels (single IV 2 mg/kg + 2 mg/kg MLP, day 15): 0.88 ± 0.13 | Normalized serum hAAT levels (single IV 2 mg/kg + 2 mg/kg MLP, day 20): 0.89 ± 0.18 | Normalized serum hAAT levels (single IV 2 mg/kg + 2 mg/kg MLP, day 29): 1.01 ± 0.23 | Normalized serum hAAT levels (single IV 2 mg/kg + 2 mg/kg MLP, day 36): 1.02 ± 0.15 | Normalized serum hAAT levels (single IV 2 mg/kg + 2 mg/kg MLP, day −7): 0.91 ± 0.11 | Serum hAAT normalized to Day 1 and control (single IV 2 mg/kg + 4 mg/kg MLP delivery polymer, Day 1): 1.00 | Serum hAAT normalized to Day 1 and control (single IV 2 mg/kg + 4 mg/kg MLP delivery polymer, Day 3): 0.25 ± 0.03 | Serum hAAT normalized to Day 1 and control (single IV 2 mg/kg + 4 mg/kg MLP delivery polymer, Day 8): 0.21 ± 0.07 | Serum hAAT normalized to Day 1 and control (single IV 2 mg/kg + 4 mg/kg MLP delivery polymer, Day 15): 0.32 ± 0.06 | Serum hAAT normalized to Day 1 and control (single IV 2 mg/kg + 4 mg/kg MLP delivery polymer, Day 22): 0.71 ± 0.14 | Serum hAAT normalized to Day 1 and control (single IV 2 mg/kg + 4 mg/kg MLP delivery polymer, Day 29): 0.66 ± 0.06 | Serum hAAT normalized to Day 1 and control (single IV 2 mg/kg + 4 mg/kg MLP delivery polymer, Day 35): 0.70 ± 0.09 | Serum hAAT normalized to Day 1 and control (single IV 2 mg/kg + 4 mg/kg MLP delivery polymer, Day −3): 0.67 ± 0.02 | Normalized serum hAAT levels (single IV 2 mg/kg + 4 mg/kg MLP, day 1): 1.00 | Normalized serum hAAT levels (single IV 2 mg/kg + 4 mg/kg MLP, day 8): 0.07 ± 0.04 | Normalized serum hAAT levels (single IV 2 mg/kg + 4 mg/kg MLP, day 15): 0.50 ± 0.19 | Normalized serum hAAT levels (single IV 2 mg/kg + 4 mg/kg MLP, day 20): 0.67 ± 0.12 | Normalized serum hAAT levels (single IV 2 mg/kg + 4 mg/kg MLP, day 29): 0.89 ± 0.06 | Normalized serum hAAT levels (single IV 2 mg/kg + 4 mg/kg MLP, day 36): 0.94 ± 0.17 | Normalized serum hAAT levels (single IV 2 mg/kg + 4 mg/kg MLP, day −7): 0.90 ± 0.15 | Serum hAAT normalized to Day 1 and control (single IV 2 mg/kg + 8 mg/kg MLP delivery polymer, Day 1): 1.00 | Serum hAAT normalized to Day 1 and control (single IV 2 mg/kg + 8 mg/kg MLP delivery polymer, Day 3): 0.17 ± 0.03 | Serum hAAT normalized to Day 1 and control (single IV 2 mg/kg + 8 mg/kg MLP delivery polymer, Day 8): 0.05 ± 0.00 | Serum hAAT normalized to Day 1 and control (single IV 2 mg/kg + 8 mg/kg MLP delivery polymer, Day 15): 0.10 ± 0.03 | Serum hAAT normalized to Day 1 and control (single IV 2 mg/kg + 8 mg/kg MLP delivery polymer, Day 22): 0.22 ± 0.03 | Serum hAAT normalized to Day 1 and control (single IV 2 mg/kg + 8 mg/kg MLP delivery polymer, Day 29): 0.40 ± 0.06 | Serum hAAT normalized to Day 1 and control (single IV 2 mg/kg + 8 mg/kg MLP delivery polymer, Day 35): 0.63 ± 0.04 | Serum hAAT normalized to Day 1 and control (single IV 2 mg/kg + 8 mg/kg MLP delivery polymer, Day −3): 0.53 ± 0.08 | Normalized serum hAAT levels (single IV 4 mg/kg + 2 mg/kg MLP, day 1): 1.00 | Normalized serum hAAT levels (single IV 4 mg/kg + 2 mg/kg MLP, day 8): 0.08 ± 0.03 | Normalized serum hAAT levels (single IV 4 mg/kg + 2 mg/kg MLP, day 15): 0.68 ± 0.13 | Normalized serum hAAT levels (single IV 4 mg/kg + 2 mg/kg MLP, day 20): 0.90 ± 0.15 | Normalized serum hAAT levels (single IV 4 mg/kg + 2 mg/kg MLP, day 29): 1.07 ± 0.07 | Normalized serum hAAT levels (single IV 4 mg/kg + 2 mg/kg MLP, day 36): 1.01 ± 0.08 | Normalized serum hAAT levels (single IV 4 mg/kg + 2 mg/kg MLP, day −7): 1.27 ± 0.07 | Serum hAAT normalized to Day 1 and control (single IV 4 mg/kg + 4 mg/kg MLP delivery polymer, Day 1): 1.00 | Serum hAAT normalized to Day 1 and control (single IV 4 mg/kg + 4 mg/kg MLP delivery polymer, Day 3): 0.27 ± 0.03 | Serum hAAT normalized to Day 1 and control (single IV 4 mg/kg + 4 mg/kg MLP delivery polymer, Day 8): 0.13 ± 0.02 | Serum hAAT normalized to Day 1 and control (single IV 4 mg/kg + 4 mg/kg MLP delivery polymer, Day 15): 0.23 ± 0.07 | Serum hAAT normalized to Day 1 and control (single IV 4 mg/kg + 4 mg/kg MLP delivery polymer, Day 22): 0.58 ± 0.09 | Serum hAAT normalized to Day 1 and control (single IV 4 mg/kg + 4 mg/kg MLP delivery polymer, Day 29): 0.60 ± 0.08 | Serum hAAT normalized to Day 1 and control (single IV 4 mg/kg + 4 mg/kg MLP delivery polymer, Day 35): 0.92 ± 0.22 | Serum hAAT normalized to Day 1 and control (single IV 4 mg/kg + 4 mg/kg MLP delivery polymer, Day −3): 0.70 ± 0.17
